Type in all cases: cell-based
Assay [1] deals with HIV-1 constructs containing mutant IN H51Y. Nature of the assay: Single-round HIV-1 infectivity assay, IN mutant H51Y. The following applies: Human immunodeficiency virus 1; Table 8; read-out: EC50 (nM, IN mutants) H51Y. As to the method: (§1) Single-Round HIV-1 Infectivity Assay.
(§2) Human embryonyl kidney cell culture cell line 293 was acquired from the American type Culture Collection (ATCC).
(§3) […]. […] The virus-containing supernatants were then harvested, clarified by low-speed centrifugation, filtrated, and diluted for preparation in infection assays. […] After compound incorporation and activation in the cell, 100 μL of virus-stock diluted to achieve a maximum luciferase signal between 0.2 and 1.5 RLUs was added to each well and further incubated at 37° C. for 48 hrs. […] Activity was normalized to infectivity in the absence of target compounds. KaleidaGraph (Synergy Software, Reading, Pa.) was used to perform regression analysis on the data. EC50 values were determined from the fit model.
(§4) pNLNgoMIVR^−ΔEnv.LUC has been described previously (Zhao et al. 2008). The integrase codon reading frame was removed from pNLNgoMIVR^−ΔEnv LUC (between KpnI and SalI sites) and placed between the KpnI and SalI sites of pBluescript II KS+. Using that construct as the wild-type template, we prepared the following HIV-1 Integrase-resistant mutants via the QuikChange II XL (Stratagene, La Jolla, Calif.) site-directed mutagenesis protocol: H51Y, T66I, E92Q, G118R, Y143R, Q148H, Q148K, N155H, R263K, G140S+Q148H, G140A+Q148K, E138K+Q148K, and H51Y+R263K. The following sense with cognate antisense (not shown) oligonucleotides (Integrated DNA Technologies, Coralville, Iowa) were used in the mutagenesis: H51Y, 5′-[…]-3; T66I, 5′-[…]-3′; E92Q, 5′-[…]-3′; G118R, 5′-[…]-3′; E138K, 5′-[…]-3; G140A, 5′-[…]-3; G140S, 5′-[…]-3′; Y143R, 5′-[…]-3′; Q148H, 5′-[…]-3′; Q148K, 5′-[…]-3; N155H, 5′-[…]-3′; R263K 5′-[…]-3′. The double mutation G140S+Q148H was constructed by using the previously generated Q148H mutant and the appropriate oligonucleotide for the 2nd mutation, G140S. The double mutation G140A+Q148K was made by using the Q148K mutant and the appropriate oligonucleotide for the 2nd mutation, G140A. The double mutation E138K+Q148K was made by using the Q148K mutant and the appropriate oligonucleotide for the 2nd mutation, E138K. The double mutation H51Y+R263K was constructed by using the previously generated H51Y mutant and the appropriate oligonucleotides for the 2nd mutation, R263K. The DNA sequence of each construct was verified independently by DNA sequence determination. The mutant integrase coding sequences from pBluescript II KS+ were then subcloned into pNLNgoMIVR^−ΔEnv LUC (between the KpnI and SalI sites) to produce the full-length mutant HIV-1 Integrase constructs. These DNA sequences were additionally checked independently by DNA sequence determination.

Assay [2] has as its system HIV-1 constructs containing mutant IN T66I. Nature of the assay: Single-round HIV-1 infectivity assay, IN mutant T66I. Particulars: Human immunodeficiency virus 1; Table 8; read-out: EC50 (nM, IN mutants) T66I. As to the method:
as §1, §2, §3, §4

The subject of assay [3] is HIV-1 constructs containing mutant IN Y143R. As to the kind of experiment: microbe, parasite or virus in culture. The following applies: Human immunodeficiency virus 1. The procedure, abridged:
(§5)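 Single-round infectivity assay using luciferase-reporter pNLNgoMIVR−ΔEnv.LUC virus carrying site-directed integrase mutants, produced in 293 cells. Activity normalized to infectivity without compound; EC50 from regression fit.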

In assay [4] the test system is HIV-1 constructs containing mutant IN G140S-Q148H. As to the kind of experiment: microbe, parasite or virus in culture. Particulars: Human immunodeficiency virus 1. A digest of the protocol:
as §5

Assay [5] relates to HIV-1 constructs containing mutant IN N155H. As to the kind of experiment: microbe, parasite or virus in culture. The following applies: Human immunodeficiency virus 1. The procedure, abridged: as §5
The subject of assay [6] is HIV-1 constructs containing mutant IN H51Y/R263K. As to the kind of experiment: Single-round HIV-1 infectivity assay, IN double mutant H51Y/R263K. Particulars: Human immunodeficiency virus 1; Table 8; read-out: EC50 (nM, IN mutants) H51Y/R263K. As to the method: as §1, §2, §3, §4
Assay [7] deals with HIV-1 constructs containing mutant IN E92Q. Nature of the assay: Single-round HIV-1 infectivity assay, IN mutant E92Q. Particulars: Human immunodeficiency virus 1; Table 8; read-out: EC50 (nM, IN mutants) E92Q. The procedure: as §1, §2, §3, §4
Assay [8] deals with HIV-1 WT IN. Nature of the assay: High growth serum assays in cells (WT).
Setting [9] is: Table 8, read-out: EC50 (nM, IN mutants) Y143R.
The mark [10] stands for this setting: Table 8, read-out: EC50 (nM, IN mutants) G140S/Q148H.
[11] abbreviates: Table 8, read-out: EC50 (nM, IN mutants) N155H.
Where [12] appears, read: Human immunodeficiency virus 1, read-out: EC50 (nM), Table 9, 10% FBS.
Where [13] appears, read: Human immunodeficiency virus 1, read-out: EC50 (nM), Table 9, 15% FBS.
The mark [14] stands for this setting: Table 3, read-out: EC50 (nM, IN Mutants) Y143R.
The mark [15] stands for this setting: Table 3, G140S-Q148H double mutant, read-out: EC50 (nM, IN Mutants) SH.
The mark [16] stands for this setting: Table 3, read-out: EC50 (nM, IN Mutants) N155H.

The record followed here is patent US9676771B2, “Compounds for inhibiting drug-resistant strains of HIV-1 integrase” (priority 2013, dated 2017).

Like-named read-outs stand apart in the source and are kept apart here.

Consider `C[C@@H]1CCO[C@H]2Cn3cc(C(=O)NCc4ccc(F)cc4F)c(=O)c(O)c3C(=O)N12` [DTG, dolutegravir, reference compound], for which the EC50 worked out at 3.2 nM in assay [1]; 0.9 nM in assay [2]; 4.3 nM in assay [3] (setting [9]); 5.8 nM in assay [4] (setting [10]); 3.6 nM in assay [5] (setting [11]); 16 nM in assay [6]. The EC50 in assay [7] came to 2.3 nM.
As to `COC(=O)CNc1c(C(=O)NCc2ccc(F)cc2F)c(=O)n(O)c2ncccc12` [XZ379, Methyl 2-((3-((2,4-difluorobenzyl)carbamoyl)-1-hydroxy-2-oxo-1,2-dihydro-1,8-naphthyridin-4-yl)amino)acetate], the EC50 in assay [8] (setting [12]) is 5 nM; in assay [8] (setting [13]), 1 nM; in assay [3] (setting [14]), 4.6 ± 2.2 nM; in assay [4] (setting [15]), 35.5 ± 15.9 nM; in assay [5] (setting [16]), 19 ± 6.9 nM.
Taken in the same sequence, the figures for `CC(=O)OCCNc1c(C(=O)NCc2ccc(F)cc2F)c(=O)n(O)c2ncccc12` [XZ402, 2-((3-((2,4-difluorobenzyl)carbamoyl)-1-hydroxy-2-oxo-1,2-dihydro-1,8-naphthyridin-4-yl)amino)ethyl acetate] were 2.2 ± 0.3 nM, 1 nM, 4.8 ± 2.9 nM, 35.1 ± 13.6 nM and 3.1 ± 0.3 nM.
In the case of `Nc1c(C(=O)NCc2ccc(F)cc2F)c(=O)n(O)c2ncc(CCCCCO)cc12` [XZ419, 4-Amino-N-(2,4-difluorobenzyl)-1-hydroxy-6-(5-hydroxypentyl)-2-oxo-1,2-dihydro-1,8-naphthyridine-3-carboxamide], the EC50 in assay [8] (setting [12]) was 0.93 ± 0.2 nM; in assay [8] (setting [13]) it was 2.1 ± 0.4 nM; in assay [1], 3.8 nM; in assay [2], 0.93 nM; in assay [3] (setting [9]) it was 3 nM; in assay [4] (setting [10]) it was 6.9 nM. The EC50 was 2.4 nM in assay [5] (setting [11]), 2.6 nM in assay [6] and 3.8 nM in assay [7].
On to `Nc1c(C(=O)NCc2ccc(F)cc2F)c(=O)n(O)c2ncc(CCCO)cc12` [XZ423, 4-Amino-N-(2,4-difluorobenzyl)-1-hydroxy-6-(3-hydroxypropyl)-2-oxo-1,2-dihydro-1,8-naphthyridine-3-carboxamide], for which the EC50 was 2.6 nM in assay [1]; 1.1 nM in assay [2]; 2.8 nM in assay [3] (setting [9]); 13.4 nM in assay [4] (setting [10]); 8.5 nM in assay [5] (setting [11]); 14.7 nM in assay [6]. The EC50 in assay [7] worked out at 4.8 ± 2 nM.
With `CC(=O)OCCCc1cnc2c(c1)c(N)c(C(=O)NCc1ccc(F)cc1F)c(=O)n2O` [XZ424, 3-(5-Amino-6-((2,4-difluorobenzyl)carbamoyl)-8-hydroxy-7-oxo-7,8-dihydro-1,8-naphthyridin-3-yl)propyl acetate], the EC50 is 0.8 nM in assay [1]; 0.75 nM in assay [2]; 2.93 nM in assay [3] (setting [9]); 13 nM in assay [4] (setting [10]); 5.4 nM in assay [5] (setting [11]); 3.9 nM in assay [6]. Moreover, the EC50 in assay [7] turned out to be 1.2 nM.
On to `Nc1c(C(=O)NCc2ccc(F)cc2F)c(=O)n(O)c2ncc(CCCCCCO)cc12` [XZ426, 4-Amino-N-(2,4-difluorobenzyl)-1-hydroxy-6-(6-hydroxyhexyl)-2-oxo-1,2-dihydro-1,8-naphthyridine-3-carboxamide], for which the EC50 was 0.8 ± 0.2 nM in assay [8] (setting [12]); 1.6 nM in assay [1]; 0.5 nM in assay [2]; 2.1 nM in assay [3] (setting [9]); 9.4 nM in assay [4] (setting [10]); 2.7 nM in assay [5] (setting [11]). In addition, the EC50 in assay [6] came to 5.2 nM; in assay [7], 0.74 nM.
Consider `Nc1c(C(=O)NCc2ccc(F)cc2F)c(=O)n(O)c2ncc(CCCCCCCCO)cc12` [XZ433, 4-Amino-N-(2,4-difluorobenzyl)-1-hydroxy-6-(8-hydroxyoctyl)-2-oxo-1,2-dihydro-1,8-naphthyridine-3-carboxamide], for which the EC50 in assay [1] amounted to 4.8 nM; in assay [2] it was 1.7 nM; in assay [3] (setting [9]), 3.2 nM; in assay [4] (setting [10]) it was 7.7 nM; in assay [5] (setting [11]) it was 6.5 nM; in assay [6], 22.4 nM. Further, the EC50 in assay [7] was 2.6 nM.
For `COC(=O)CCc1cnc2c(c1)c(N)c(C(=O)NCc1ccc(F)cc1F)c(=O)n2O` [XZ434, Methyl 3-(5-amino-6-((2,4-difluorobenzyl)carbamoyl)-8-hydroxy-7-oxo-7,8-dihydro-1,8-naphthyridin-3-yl)propanoate], the EC50 came to 0.62 ± 0.2 nM in assay [8] (setting [12]); 0.6 nM in assay [8] (setting [13]); 0.63 nM in assay [1]; 0.53 nM in assay [2]; 0.67 nM in assay [3] (setting [9]); 5.3 nM in assay [4] (setting [10]). For the same compound, the EC50 in assay [5] (setting [11]) was found to be 2.3 nM; in assay [6] it was 2.4 nM; in assay [7], 2 ± 1.1 nM.
With `O=C(NCc1ccc(F)cc1F)c1c(NCCO)c2cc(CCCCCO)cnc2n(O)c1=O` [XZ437, N-(2,4-Difluorobenzyl)-1-hydroxy-4-((2-hydroxyethyl)amino)-6-(5-hydroxypentyl)-2-oxo-1,2-dihydro-1,8-naphthyridine-3-carboxamide], the EC50 in assay [1] stood at 10.8 nM; in assay [2], 1.9 nM; in assay [3] (setting [9]), 11.6 nM; in assay [4] (setting [10]) it was 15.5 nM; in assay [5] (setting [11]), 15 nM; in assay [6] it was 30.9 nM. Also, the EC50 in assay [7] turned out to be 6.5 nM.
In the case of `COC(=O)CCc1cnc2c(c1)c(NCCO)c(C(=O)NCc1ccc(F)cc1F)c(=O)n2O` [XZ438, Methyl 3-(6-((2,4-difluorobenzyl)carbamoyl)-8-hydroxy-5-((2-hydroxyethyl)amino)-7-oxo-7,8-dihydro-1,8-naphthyridin-3-yl)propanoate], the EC50 in assay [1] came to 6.9 nM; in assay [2], 0.62 nM; in assay [3] (setting [9]) it was 3.8 nM; in assay [4] (setting [10]), 15.9 nM; in assay [5] (setting [11]), 3.9 nM; in assay [6], 2.5 nM. Besides, the EC50 in assay [7] stood at 2.7 nM.
For the compound `O=C(NCc1ccc(F)cc1F)c1c(O)c2c(CO)ccnc2n(O)c1=O` [XZ440, N-(2,4-Difluorobenzyl)-1,4-dihydroxy-5-(hydroxymethyl)-2-oxo-1,2-dihydro-1,8-naphthyridine-3-carboxamide], the EC50 in assay [1] stood at 5 nM; in assay [2], 1.4 nM; in assay [3] (setting [9]) it was 2.6 nM; in assay [4] (setting [10]) it was 14.7 nM; in assay [5] (setting [11]), 14.9 nM; in assay [6], 9 ± 0.6 nM. Further, in assay [7], the EC50 was found to be 4 ± 0.6 nM.
